Assay results published in PubChem BioAssay AID493130 (Broad Institute, 2011).
Records with an inconclusive call do not appear. The source made the active and inactive calls.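 How the source made its calls: active means signal-lowering compounds whose fitted half-maximal concentration is at most ten times their highest tested dose; inconclusive means flat fit between -30 and -70%, or poor fit; inactive means flat within 30%, signal rising, or potency beyond limit.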

biological target: POS-1 (Caenorhabditis elegans) binding to mex-3 RNA; assay: inhibitors of POS-1/mex-3 RNA binding, dose response, counter-screen for MEX-5 RNA-binding inhibitor project, biochemical, fluorescence polarization, cherry-picked samples, set 2 (AID 493130); conditions: POS-1/mex-3 RNA fluorescence polarization, 1 h; at 10 µM (top of the series);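 further: POS-1 as maltose binding protein fusion made in E. coli with FITC RNA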

Row | SMILES | activity change, negative = inhibition
1 | C=CCc1cccc2cc(C(=O)NNC(=O)CC#N)c(=O)oc12 | inactive
2 | CC1CN2C(c3ccc([N+](=O)[O-])cc3)=CSC2=N1 (configuration not stated) | inactive
3 | Cc1cccnc1Nc1nc(-c2ccc(O)cc2O)cs1 | inactive
4 | COc1ccc(CCn2c(=N)c(C(=O)NCC3CCCO3)cc3c(=O)n4ccccc4nc32)cc1 (configuration not stated) | inactive
5 | Nc1cnccc1C(=O)O | inactive
6 | N#C/C(C(N)=O)=C1/CCc2ccccc2N1 | inactive
7 | CC(=O)O[C@@H]1[C@@H](O)[C@@H](O)[C@H](Oc2c(-c3ccc(O)cc3)oc3c(CC=C(C)C)c(O)cc(O)c3c2=O)O[C@H]1C | inactive
8 | COCC(C)N1CCC(Oc2cccc(C(=O)NCCc3ccccc3)c2)CC1 (configuration not stated) | inactive
9 | CC(=O)NNc1ncnc2ccccc12 | inactive
10 | Cc1c(NC(=O)c2ccc(=O)oc2)c(=O)n(-c2ccccc2)n1C | inactive
11 | COc1ccc2cc(/C=C3\SC(=S)NC3=O)c(N3CCOCC3)nc2c1 | inactive
12 | Cc1ccc(/C=C2/NC(=O)N(Cc3ccccc3)C2=O)s1 | inactive
13 | N#CCCn1c2ccccc2c2nc3ccccc3nc21 | inactive
14 | Cc1c(N=Cc2cc3c(cc2[N+](=O)[O-])OCO3)cccc1[N+](=O)[O-] | inactive
15 | O=c1nc(-c2ccccc2)c2cc(Br)ccc2[nH]1 | inactive
16 | Cn1cc(CNC(=O)C2c3ccccc3Oc3ccccc32)cn1 | inactive
17 | COc1cccc(C2C=C(c3cccs3)Nc3ncnn32)c1OC (configuration not stated) | inactive
18 | Cc1c(N=NC2=C(O)CCCC2=O)c(=O)n(-c2ccccc2)n1C | inactive
19 | Cc1ccc2c(c1Cl)NC(C(=O)O)C1CC(Sc3ccccc3[N+](=O)[O-])C(Cl)C21 (configuration not stated) | inactive
20 | COC(=O)CCC(=O)NC(=S)Nc1sc(C)c(C)c1C(N)=O | inactive
21 | CC/C(=N/Nc1cccc(C)c1)c1cnnc(SC)n1 | inactive
22 | Cc1cccc(CS(=O)(=O)c2nnc([C@H](Cc3ccccc3)NC(=O)OC(C)(C)C)o2)c1 | inactive
23 | N=C1C(c2nc3ccccc3[nH]2)=C(O)CN1c1ccccc1 | inactive
24 | CCn1c(O)c(N=NC(=O)CNC(=O)/C=C/c2ccco2)c2ccccc21 | inactive

Row | SMILES | activity change, negative = inhibition
25 | S=c1[nH]cnc2sc(Nc3ccccc3)nc12 | inactive
26 | O=C(NNC(=O)c1ccco1)c1csc(N2CCOCC2)n1 | inactive
27 | CS(=O)(=O)c1ccccc1C(=O)Nc1cccc2ncccc12 | inactive
28 | Cc1cccc(-n2c(N)c(-c3nc4ccccc4n3C)c3nc4ccccc4nc32)c1 | inactive
29 | COc1ccc(/C=C2\SC(=S)N(CCCC(=O)Nc3ccccn3)C2=O)cc1OC | inactive
30 | C#CCOCCOCCOCCNc1nc(N2CCN(C(=O)[C@H]([C@@H](C)O)n3cc(CCCCN)nn3)CC2)nc(N2CCN(C(=O)[C@H](C)n3cc(CCCN=C(N)N)nn3)CC2)n1 | inactive
31 | O=C(O)/C=C/C(=O)NNc1ncnc2ccccc12 | inactive
32 | Cc1cccc(C(=O)NNC(=O)c2csc(N3CCOCC3)n2)c1C | inactive
33 | Cc1nc2c3ccccc3nc(NNC(=O)CCC(=O)N3CCC(C)CC3)n2n1 | inactive
34 | Cn1nc(C(=O)NNC(=O)c2ccc(Cl)cc2)ccc1=O | inactive
35 | CCN(CC)c1ccc(C(=O)N/N=C(\C)c2cccnc2)cc1 | inactive
36 | Cc1ccc(-c2ccc(/C=N/N=C3/NC(=O)C(CC(=O)O)S3)o2)c([N+](=O)[O-])c1 (configuration not stated) | inactive
37 | O=c1c2ccccc2nc(/C=C/c2ccc([N+](=O)[O-])o2)n1-c1ccc(O)cc1 | inactive
38 | CCC(=O)NCCc1nc2ccccc2n1Cc1ccccc1 | inactive
39 | COC(=O)c1cc(O)c(O)c(O)c1 | inactive
40 | CC1=NOC(=O)/C1=C/c1ccc2c(c1)OCO2 | inactive
41 | COc1cccc(NCc2cc(=O)oc3cc(C)c(O)cc23)c1 | inactive
42 | Cc1c(C(=O)NNC(=S)Nc2ccc(S(N)(=O)=O)cc2)oc2ccccc12 | inactive
43 | COc1ccc(C(CC(=O)N2CCCC2)c2c(OC)cc(OC)c3ccc(=O)oc23)cc1 (configuration not stated) | inactive
44 | COc1nc(N/N=C/c2ccc(-c3ccccc3[N+](=O)[O-])o2)nc(N2CCOCC2)n1 | inactive
45 | CSc1nsc2nc(=O)c(/C=C3\C(C)=Nc4ccc(C)cc43)c(N)n12 | inactive
46 | CS(=O)(=O)/C(C#N)=C/c1c(-c2ccccc2)nc2n1CCS2 | inactive
47 | Cc1ccc(C(=O)/C=C/c2ccccc2[N+](=O)[O-])cc1 | inactive
